Measurements reported in ChEMBL document CHEMBL5154816, “Structure-Based Discovery and Optimization of Furo[3,2-c]pyridin-4(5H)-one Derivatives as Potent and Second Bromodomain (BD2)-Selective Bromo and Extra Terminal Domain (BET) Inhibitors” (J Med Chem, 2022).

Columns and labels:
[1] = molecular target: T1, Bromodomain-containing protein 4 (Homo sapiens, UniProt O60885); test: Binding affinity to His6-fused BRD4 BD1 (unknown origin) assessed as dissociation constant in PBS incubated for 1 hrs by biolayer interferometry analysis
[2] = molecular target: T1, Bromodomain-containing protein 4; test: Binding affinity to His6-fused BRD4 BD2 (unknown origin) assessed as dissociation constant in PBS incubated for 1 hrs by biolayer interferometry analysis
[3] = system: Kasumi 1; test: Antiproliferative activity against human Kasumi 1 cells assessed as cell growth inhibition incubated for 72 hrs by Cell titre Glo-luminiscence cell viability assay; type: functional, cell-based; details: Kasumi 1, 72 h
[4] = system: U-937; test: Antiproliferative activity against human U-937 cells assessed as cell growth inhibition incubated for 72 hrs by Cell titre Glo-luminiscence cell viability assay; type: functional, cell-based; details: U-937, 72 h
[5] = system: THP-1; test: Antiproliferative activity against human THP-1 cells assessed as cell growth inhibition incubated for 72 hrs by Cell titre Glo-luminiscence cell viability assay; type: functional, cell-based; details: THP-1, 72 h
[6] = system: MDA-MB-231; test: Antiproliferative activity against human MDA-MB-231 cells assessed as cell growth inhibition incubated for 96 hrs by Cell titre Glo-luminiscence cell viability assay; type: functional, cell-based; details: MDA-MB-231, 96 h
[7] = system: DU-145; test: Antiproliferative activity against AR-negative human DU-145 cells assessed as cell growth inhibition incubated for 72 hrs by Cell titre Glo-luminiscence cell viability assay; type: functional, cell-based; details: DU-145, 72 h
[8] = system: MCF7; test: Antiproliferative activity against human MCF7 cells assessed as cell growth inhibition incubated for 96 hrs by Cell titre Glo-luminiscence cell viability assay; type: functional, cell-based; details: MCF7, 96 h
[9] = system: HepG2; test: Antiproliferative activity against human HepG2 cells assessed as cell growth inhibition incubated for 72 hrs by Cell titre Glo-luminiscence cell viability assay; type: functional, cell-based; details: HepG2, 72 h
[10] = system: CWR22R; test: Antiproliferative activity against human 22Rv1 cells assessed as cell growth inhibition incubated for 72 hrs by Cell titre Glo-luminiscence cell viability assay; type: functional, cell-based; details: 22Rv1, 72 h
[11] = Metabolic stability in human hepatocytes assessed as hepatic clearance at 1 uM measured up to 60 mins in presence of NADPH by HPLC-MS/MS analysis; type: ADME, cell-based, Hepatocyte
[12] = system: MOLM-13; test: Antiproliferative activity against human MOLM-13 cells assessed as cell growth inhibition incubated for 72 hrs by Cell titre Glo-luminiscence cell viability assay; type: functional, cell-based; details: MOLM-13, 72 h

| Structure (SMILES) | Kd [1] [nM] | Kd [2] [nM] | IC50 [3] [nM] | IC50 [4] [nM] | IC50 [5] [nM] | IC50 [6] [nM] | IC50 [7] [nM] | IC50 [8] [nM] | IC50 [9] [nM] | IC50 [10] [nM] | CLhep predicted at 1 µM [11] [mL/min/kg] | CLH ([11]; 1 h, 1 µM) [mL/min/g] | IC50 [12] [nM] |
| --- | --- | --- | --- | --- | --- | --- | --- | --- | --- | --- | --- | --- | --- |
| Cc1cc(F)cc(C)c1Oc1ccc(C(C)(C)O)cc1-c1cn(C)c(=O)c2cc(-c3cnc(C4CCCCC4)[nH]3)oc12 | 4960 | 44.2 | – | – | – | – | – | – | – | – | – | – | – |
| Cc1cc(F)cc(C)c1Oc1ccc(C(C)(C)O)cc1-c1cn(C)c(=O)c2cc(-c3cnc(C4CCCC4)[nH]3)oc12 | – | – | 471 | 1000 | 1300 | 1000 | 1000 | 1000 | 1000 | 232 | 17.5 | 0.115 | 260 |
